Experimental data from paper doi:10.1101/2023.11.24.568596v1 (biorxiv, 2023).
Blank lines part the entries; values can stand above or below the compound they belong to.

Key:
Details in all cases: binder
BRAF = BRAF (Homo sapiens, UniProt P15056)
DAPK1 = DAPK1 (Homo sapiens, UniProt P53355)
Erk7 = biological target: T1, Erk7 (Homo sapiens, UniProt Q8TD08)
T1 sequence (Q8TD08 1-544): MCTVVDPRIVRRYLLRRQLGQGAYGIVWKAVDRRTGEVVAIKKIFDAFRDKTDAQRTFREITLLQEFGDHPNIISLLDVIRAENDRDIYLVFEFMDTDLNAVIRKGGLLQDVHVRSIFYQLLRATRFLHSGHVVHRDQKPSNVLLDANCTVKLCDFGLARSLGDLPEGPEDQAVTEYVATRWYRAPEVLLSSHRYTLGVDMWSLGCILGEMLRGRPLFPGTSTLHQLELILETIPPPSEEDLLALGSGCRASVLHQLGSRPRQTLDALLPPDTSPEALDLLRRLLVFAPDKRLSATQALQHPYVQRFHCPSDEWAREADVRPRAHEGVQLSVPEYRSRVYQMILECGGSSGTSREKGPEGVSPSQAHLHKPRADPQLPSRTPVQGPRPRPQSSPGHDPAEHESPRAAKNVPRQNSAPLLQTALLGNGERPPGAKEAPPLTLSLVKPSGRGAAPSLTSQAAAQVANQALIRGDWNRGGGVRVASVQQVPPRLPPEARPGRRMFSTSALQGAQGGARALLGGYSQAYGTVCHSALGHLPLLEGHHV

MER = biological target: T2, MER (Homo sapiens, UniProt Q12866)
T2 sequence (Q12866 1-999): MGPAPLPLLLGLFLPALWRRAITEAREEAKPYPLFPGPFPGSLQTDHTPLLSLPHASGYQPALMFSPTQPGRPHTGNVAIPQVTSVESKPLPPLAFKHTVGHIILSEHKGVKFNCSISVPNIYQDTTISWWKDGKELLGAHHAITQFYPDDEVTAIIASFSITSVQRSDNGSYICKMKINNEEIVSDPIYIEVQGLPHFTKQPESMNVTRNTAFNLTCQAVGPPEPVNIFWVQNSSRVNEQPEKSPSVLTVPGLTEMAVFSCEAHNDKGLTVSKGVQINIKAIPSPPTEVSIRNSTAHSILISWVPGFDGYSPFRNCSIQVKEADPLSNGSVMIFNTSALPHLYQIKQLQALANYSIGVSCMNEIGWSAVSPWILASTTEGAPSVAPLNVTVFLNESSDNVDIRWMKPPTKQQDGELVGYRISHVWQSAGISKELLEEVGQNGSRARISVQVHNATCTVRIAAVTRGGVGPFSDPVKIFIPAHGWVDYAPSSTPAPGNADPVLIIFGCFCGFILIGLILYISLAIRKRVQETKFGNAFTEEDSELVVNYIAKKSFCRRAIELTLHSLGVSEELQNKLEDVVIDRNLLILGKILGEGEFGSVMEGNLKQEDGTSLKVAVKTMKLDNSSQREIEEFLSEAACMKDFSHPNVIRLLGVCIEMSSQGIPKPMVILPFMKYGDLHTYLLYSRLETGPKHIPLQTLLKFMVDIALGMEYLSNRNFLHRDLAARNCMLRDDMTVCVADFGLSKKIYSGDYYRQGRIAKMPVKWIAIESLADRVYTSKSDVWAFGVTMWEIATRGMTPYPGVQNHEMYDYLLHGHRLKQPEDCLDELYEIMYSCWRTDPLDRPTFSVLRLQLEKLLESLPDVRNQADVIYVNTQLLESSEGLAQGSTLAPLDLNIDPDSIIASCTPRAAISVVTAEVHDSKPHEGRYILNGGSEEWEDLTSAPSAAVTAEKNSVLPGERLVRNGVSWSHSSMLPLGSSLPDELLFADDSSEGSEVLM

OSR1 = OSR1 (Homo sapiens, UniProt O95747)
Chain of OSR1 (O95747 whole entry): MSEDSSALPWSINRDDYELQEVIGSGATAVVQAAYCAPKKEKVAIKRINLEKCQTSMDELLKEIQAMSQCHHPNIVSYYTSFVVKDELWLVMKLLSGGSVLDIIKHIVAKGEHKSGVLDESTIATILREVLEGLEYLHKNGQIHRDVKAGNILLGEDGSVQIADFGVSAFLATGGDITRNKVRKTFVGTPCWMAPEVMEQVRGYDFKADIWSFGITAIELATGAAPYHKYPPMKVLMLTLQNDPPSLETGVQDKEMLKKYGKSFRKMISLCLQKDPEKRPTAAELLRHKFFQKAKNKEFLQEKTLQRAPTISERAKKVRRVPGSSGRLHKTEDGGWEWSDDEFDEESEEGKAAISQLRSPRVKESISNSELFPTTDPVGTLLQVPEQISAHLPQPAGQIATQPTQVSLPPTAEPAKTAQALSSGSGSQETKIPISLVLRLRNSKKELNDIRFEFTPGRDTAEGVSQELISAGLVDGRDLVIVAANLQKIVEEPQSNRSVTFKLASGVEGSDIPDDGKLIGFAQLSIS

PLK4 = biological target: T3, PLK4 (Homo sapiens, UniProt O00444)
T3 sequence (O00444 1-970): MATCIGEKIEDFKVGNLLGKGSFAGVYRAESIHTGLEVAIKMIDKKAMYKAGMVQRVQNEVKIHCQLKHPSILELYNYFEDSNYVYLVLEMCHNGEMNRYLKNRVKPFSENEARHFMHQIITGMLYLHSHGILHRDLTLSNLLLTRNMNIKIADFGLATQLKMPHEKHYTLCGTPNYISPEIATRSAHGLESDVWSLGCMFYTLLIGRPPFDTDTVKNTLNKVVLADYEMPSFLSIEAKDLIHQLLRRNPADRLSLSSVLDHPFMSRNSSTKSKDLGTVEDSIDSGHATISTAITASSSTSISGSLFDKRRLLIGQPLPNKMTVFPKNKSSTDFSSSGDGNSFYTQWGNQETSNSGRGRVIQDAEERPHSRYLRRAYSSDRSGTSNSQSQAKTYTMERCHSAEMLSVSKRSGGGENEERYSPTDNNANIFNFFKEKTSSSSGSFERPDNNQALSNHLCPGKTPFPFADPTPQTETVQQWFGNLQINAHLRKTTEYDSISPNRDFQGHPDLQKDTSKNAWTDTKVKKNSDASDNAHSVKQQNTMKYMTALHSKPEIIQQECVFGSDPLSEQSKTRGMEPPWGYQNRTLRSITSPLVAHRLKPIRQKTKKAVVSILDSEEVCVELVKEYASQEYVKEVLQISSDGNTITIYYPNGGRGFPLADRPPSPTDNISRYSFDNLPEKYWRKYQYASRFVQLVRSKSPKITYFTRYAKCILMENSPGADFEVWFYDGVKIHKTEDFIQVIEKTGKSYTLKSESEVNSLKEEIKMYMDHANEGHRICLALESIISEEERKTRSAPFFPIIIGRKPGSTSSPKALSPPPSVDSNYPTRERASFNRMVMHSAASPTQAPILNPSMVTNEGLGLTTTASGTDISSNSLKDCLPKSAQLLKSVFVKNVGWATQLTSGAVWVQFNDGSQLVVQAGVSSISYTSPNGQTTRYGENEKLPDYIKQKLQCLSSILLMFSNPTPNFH

Chain of BRAF (P15056 whole entry): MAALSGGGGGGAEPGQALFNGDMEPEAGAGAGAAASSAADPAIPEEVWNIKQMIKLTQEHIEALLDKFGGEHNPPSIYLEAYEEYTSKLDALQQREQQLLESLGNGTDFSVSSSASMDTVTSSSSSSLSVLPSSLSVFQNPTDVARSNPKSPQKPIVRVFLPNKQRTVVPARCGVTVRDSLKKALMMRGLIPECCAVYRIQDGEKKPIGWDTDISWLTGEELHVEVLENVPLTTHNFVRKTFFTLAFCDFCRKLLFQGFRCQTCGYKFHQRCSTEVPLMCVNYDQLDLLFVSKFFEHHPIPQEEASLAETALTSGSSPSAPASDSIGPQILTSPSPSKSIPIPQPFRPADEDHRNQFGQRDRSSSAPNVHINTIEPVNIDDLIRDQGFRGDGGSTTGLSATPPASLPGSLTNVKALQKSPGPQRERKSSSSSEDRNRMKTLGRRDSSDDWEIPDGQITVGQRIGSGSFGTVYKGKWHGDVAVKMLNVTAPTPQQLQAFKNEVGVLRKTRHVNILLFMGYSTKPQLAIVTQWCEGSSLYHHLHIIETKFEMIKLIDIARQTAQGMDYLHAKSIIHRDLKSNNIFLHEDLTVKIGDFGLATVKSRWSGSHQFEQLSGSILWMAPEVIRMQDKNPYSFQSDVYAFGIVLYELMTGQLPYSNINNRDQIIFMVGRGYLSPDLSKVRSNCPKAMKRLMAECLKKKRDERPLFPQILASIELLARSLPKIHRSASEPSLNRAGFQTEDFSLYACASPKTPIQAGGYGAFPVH
Chain of DAPK1 (P53355 whole entry): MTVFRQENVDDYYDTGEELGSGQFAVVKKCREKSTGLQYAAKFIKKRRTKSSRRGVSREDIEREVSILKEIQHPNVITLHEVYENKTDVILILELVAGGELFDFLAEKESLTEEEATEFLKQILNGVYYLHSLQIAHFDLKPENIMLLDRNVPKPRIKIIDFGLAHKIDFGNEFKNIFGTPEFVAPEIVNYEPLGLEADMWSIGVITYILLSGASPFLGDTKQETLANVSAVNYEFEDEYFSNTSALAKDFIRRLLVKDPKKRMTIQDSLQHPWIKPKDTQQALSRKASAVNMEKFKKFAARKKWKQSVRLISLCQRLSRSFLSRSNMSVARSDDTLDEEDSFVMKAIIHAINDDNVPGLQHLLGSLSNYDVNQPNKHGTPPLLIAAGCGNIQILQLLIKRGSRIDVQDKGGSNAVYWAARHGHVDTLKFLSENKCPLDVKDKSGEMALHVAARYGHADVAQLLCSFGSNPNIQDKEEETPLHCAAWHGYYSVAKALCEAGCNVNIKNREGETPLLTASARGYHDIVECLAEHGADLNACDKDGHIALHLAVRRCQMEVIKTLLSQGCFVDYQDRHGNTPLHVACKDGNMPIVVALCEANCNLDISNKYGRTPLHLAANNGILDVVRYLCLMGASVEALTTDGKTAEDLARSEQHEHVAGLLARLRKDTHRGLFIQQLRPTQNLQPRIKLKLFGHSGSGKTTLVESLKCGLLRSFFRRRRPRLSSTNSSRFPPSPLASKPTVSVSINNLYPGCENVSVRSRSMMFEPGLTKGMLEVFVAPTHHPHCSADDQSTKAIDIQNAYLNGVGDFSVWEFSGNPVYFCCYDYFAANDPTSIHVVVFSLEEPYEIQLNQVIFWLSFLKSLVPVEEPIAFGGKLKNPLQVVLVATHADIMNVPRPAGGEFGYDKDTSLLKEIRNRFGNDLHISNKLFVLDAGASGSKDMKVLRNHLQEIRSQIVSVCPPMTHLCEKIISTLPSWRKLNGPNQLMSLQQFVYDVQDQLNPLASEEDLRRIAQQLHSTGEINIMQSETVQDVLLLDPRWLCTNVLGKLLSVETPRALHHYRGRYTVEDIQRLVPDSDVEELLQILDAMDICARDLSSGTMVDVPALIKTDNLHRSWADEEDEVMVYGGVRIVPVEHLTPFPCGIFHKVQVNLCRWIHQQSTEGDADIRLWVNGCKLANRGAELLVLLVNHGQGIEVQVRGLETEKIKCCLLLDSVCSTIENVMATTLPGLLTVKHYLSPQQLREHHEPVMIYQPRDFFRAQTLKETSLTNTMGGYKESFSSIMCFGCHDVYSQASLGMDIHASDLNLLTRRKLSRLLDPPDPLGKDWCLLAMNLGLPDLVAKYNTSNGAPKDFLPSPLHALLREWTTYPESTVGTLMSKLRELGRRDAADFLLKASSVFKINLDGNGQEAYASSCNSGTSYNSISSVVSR

ΔTm 28 (BRAF): 3.2 °C
ΔTm 28 (DAPK1): -0.7 °C
ΔTm 28 (MER): 0.1 °C
ΔTm 28 (OSR1): 0.1 °C
ΔTm 28 (PLK4): 8.0 °C
Structure (SMILES): Cc1cccc(-c2ccc(-c3cc4cnc(Nc5cc(C(F)(F)F)ccc5C)nc4n(CCCCN)c3=O)c(Cl)c2)n1 [compound 28, 8-(4-Aminobutyl)-6-(2-chloro-4-(6-methylpyridin-2-yl)phenyl)-2-((2-methyl-5-(trifluoromethyl)phenyl)amino)pyrido[2,3-d]pyrimidin-7(8H)-one]
ΔTm 28 (Erk7): 0.5 °C

ΔTm 31 (BRAF): 5.0 °C
ΔTm 31 (DAPK1): -0.6 °C
ΔTm 31 (MER): 3.3 °C
ΔTm 31 (OSR1): 3.1 °C
ΔTm 31 (PLK4): 12.2 °C
Structure (SMILES): Cc1cccc(-c2ccc(-c3cc4cnc(Nc5ccc(O)cc5)nc4n(CCCCN)c3=O)c(Cl)c2)n1 [compound 31, 8-(4-Aminobutyl)-6-(2-chloro-4-(6-methylpyridin-2-yl)phenyl)-2-((4-hydroxyphenyl)amino) pyrido[2,3-d]pyrimidin-7(8H)-one]
ΔTm 31 (Erk7): 1.4 °C

ΔTm 32 (BRAF): 5.7 °C
ΔTm 32 (DAPK1): -0.9 °C
ΔTm 32 (MER): 2.8 °C
ΔTm 32 (OSR1): 3.1 °C
ΔTm 32 (PLK4): 11.5 °C
Structure (SMILES): Cc1cccc(-c2ccc(-c3cc4cnc(Nc5ccc(C)c(O)c5)nc4n(CCCCN)c3=O)c(Cl)c2)n1 [compound 32, 8-(4-Aminobutyl)-6-(2-chloro-4-(6-methylpyridin-2-yl)phenyl)-2-((3-hydroxy-4-methylphenyl)amino)pyrido[2,3-d]pyrimidin-7(8H)-one]
ΔTm 32 (Erk7): 1.0 °C

Continued, compound first:

Structure (SMILES): Cc1cccc(-c2ccc(-c3cc4cnc(NCCCN5CCCC5=O)nc4n(CCCCN)c3=O)c(Cl)c2)n1 [compound 27, MR30]
ΔTm MR30 (27) (BRAF): 2.6 °C
ΔTm MR30 (27) (DAPK1): -1.2 °C
ΔTm MR30 (27) (Erk7): -0.4 °C
ΔTm MR30 (27) (MER): 0.7 °C
ΔTm MR30 (27) (OSR1): -1.1 °C
ΔTm MR30 (27) (PLK4): 4.5 °C

Structure (SMILES): Cc1cccc(-c2ccc(-c3cc4cnc(Nc5ccc(CCCO)cc5)nc4n(CCCCN)c3=O)c(Cl)c2)n1 [compound 30, 8-(4-Aminobutyl)-6-(2-chloro-4-(6-methylpyridin-2-yl)phenyl)-2-((4-(3-hydroxypropyl)phenyl)amino)pyrido[2,3-d]pyrimidin-7(8H)-one]
ΔTm 30 (BRAF): 6.2 °C
ΔTm 30 (DAPK1): -0.7 °C
ΔTm 30 (Erk7): 1.2 °C
ΔTm 30 (MER): 3.1 °C
ΔTm 30 (OSR1): 2.3 °C
ΔTm 30 (PLK4): 12.6 °C

Structure (SMILES): Cc1cccc(-c2ccc(-c3cc4cnc(NCCCN5CCNCC5)nc4n(CCCCN)c3=O)c(Cl)c2)n1 [compound 29, 8-(4-Aminobutyl)-6-(2-chloro-4-(6-methylpyridin-2-yl)phenyl)-2-((3-(piperazin-1-yl)propyl)amino)pyrido[2,3-d]pyrimidin-7(8H)-one]
ΔTm 29 (BRAF): 1.5 °C
ΔTm 29 (DAPK1): -0.9 °C
ΔTm 29 (Erk7): 0.1 °C
ΔTm 29 (MER): 1.0 °C
ΔTm 29 (OSR1): 0.3 °C
ΔTm 29 (PLK4): 4.2 °C
